For test [1], the target named is T1, Alpha-2C adrenergic receptor (Homo sapiens, UniProt P18825).
T1 sequence (P18825 whole entry): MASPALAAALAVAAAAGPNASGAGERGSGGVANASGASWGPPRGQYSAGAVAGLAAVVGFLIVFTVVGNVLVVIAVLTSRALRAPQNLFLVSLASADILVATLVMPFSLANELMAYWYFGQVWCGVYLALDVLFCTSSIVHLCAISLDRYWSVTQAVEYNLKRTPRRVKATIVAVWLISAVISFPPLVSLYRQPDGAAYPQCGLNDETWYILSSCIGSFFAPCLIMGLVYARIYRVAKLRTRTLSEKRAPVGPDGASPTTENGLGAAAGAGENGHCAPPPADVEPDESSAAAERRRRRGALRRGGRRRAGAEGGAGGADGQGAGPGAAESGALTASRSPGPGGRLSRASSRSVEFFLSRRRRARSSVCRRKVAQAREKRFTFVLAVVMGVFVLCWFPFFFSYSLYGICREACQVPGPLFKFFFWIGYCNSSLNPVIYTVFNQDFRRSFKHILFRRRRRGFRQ
The test can be described thus: DRUGMATRIX: Adrenergic Alpha-2C radioligand binding (ligand: [3H] MK-912). Note: call rule not given here. Format: cell membranes, Sf9, Membrane. The conditions noted are these: sf9.

Test [2] addresses T2, C-C chemokine receptor type 4 (Homo sapiens, UniProt P51679).
T2 sequence (P51679 whole entry): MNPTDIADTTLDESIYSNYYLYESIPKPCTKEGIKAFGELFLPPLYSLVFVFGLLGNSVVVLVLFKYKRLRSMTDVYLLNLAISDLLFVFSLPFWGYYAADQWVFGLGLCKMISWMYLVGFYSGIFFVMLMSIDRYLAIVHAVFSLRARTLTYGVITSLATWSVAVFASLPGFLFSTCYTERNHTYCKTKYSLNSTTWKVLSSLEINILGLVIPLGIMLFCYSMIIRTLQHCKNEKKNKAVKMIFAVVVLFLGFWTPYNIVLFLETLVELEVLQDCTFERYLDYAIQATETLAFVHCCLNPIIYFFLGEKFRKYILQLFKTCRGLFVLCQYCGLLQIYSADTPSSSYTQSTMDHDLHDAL
Format: cell membranes, Membrane. The note with it: chem-1.

The next test has as its target T3, Endothelin-1 receptor (Homo sapiens, UniProt P25101). Note: in other assays of this panel Not Active means under 50% inhibition at 10 µM.
T3 sequence (P25101 whole entry): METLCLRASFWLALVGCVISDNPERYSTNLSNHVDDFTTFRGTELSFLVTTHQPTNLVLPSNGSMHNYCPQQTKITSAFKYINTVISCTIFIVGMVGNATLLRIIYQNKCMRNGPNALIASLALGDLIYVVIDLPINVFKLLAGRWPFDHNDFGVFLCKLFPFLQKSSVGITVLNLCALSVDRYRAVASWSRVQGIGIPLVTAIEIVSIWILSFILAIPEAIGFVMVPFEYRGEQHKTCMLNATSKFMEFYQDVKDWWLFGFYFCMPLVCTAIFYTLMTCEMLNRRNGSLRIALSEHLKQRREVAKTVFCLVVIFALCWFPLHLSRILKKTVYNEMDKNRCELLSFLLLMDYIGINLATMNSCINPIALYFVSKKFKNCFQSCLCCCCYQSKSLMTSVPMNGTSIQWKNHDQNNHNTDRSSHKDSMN
Format: cell membranes, CHO-K1, Membrane.

In another test the target is Glycine receptor (Rattus norvegicus, UniProt P22771+P24524+P07727+P20781). Format: cell membranes, Wistar, Spinal cord, Membrane. Note: in other assays of this panel Not Active means under 50% inhibition at 10 µM.
The next test concerns the target T4, Neutrophil elastase (Homo sapiens, UniProt P08246).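 Note: inhibition of neutrophil elastase enzyme activity, measured with a p-nitroanilide-linked peptide substrate; in other assays of this panel Not Active means under 50% inhibition at 10 µM.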
T4 sequence (P08246 whole entry): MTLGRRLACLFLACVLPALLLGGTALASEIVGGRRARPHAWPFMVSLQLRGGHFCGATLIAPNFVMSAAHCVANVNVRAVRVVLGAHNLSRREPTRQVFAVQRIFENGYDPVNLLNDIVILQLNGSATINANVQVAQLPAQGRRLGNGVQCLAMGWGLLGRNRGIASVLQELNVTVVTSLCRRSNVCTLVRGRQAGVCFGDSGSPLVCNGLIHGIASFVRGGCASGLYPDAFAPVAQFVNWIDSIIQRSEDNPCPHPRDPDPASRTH
In kind it is tissue-based.

The target of test [3] is Matrix metalloproteinase-9 (Homo sapiens, UniProt P14780). The test can be described thus: biochemical. Format: cell-based.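 Note: inhibition of isolated MMP-9 enzyme activity toward a synthetic peptide substrate, from the DrugMatrix protease screening panel; in other assays of this panel Not Active means under 50% inhibition at 10 µM.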
Sequence of Matrix metalloproteinase-9 (P14780 whole entry): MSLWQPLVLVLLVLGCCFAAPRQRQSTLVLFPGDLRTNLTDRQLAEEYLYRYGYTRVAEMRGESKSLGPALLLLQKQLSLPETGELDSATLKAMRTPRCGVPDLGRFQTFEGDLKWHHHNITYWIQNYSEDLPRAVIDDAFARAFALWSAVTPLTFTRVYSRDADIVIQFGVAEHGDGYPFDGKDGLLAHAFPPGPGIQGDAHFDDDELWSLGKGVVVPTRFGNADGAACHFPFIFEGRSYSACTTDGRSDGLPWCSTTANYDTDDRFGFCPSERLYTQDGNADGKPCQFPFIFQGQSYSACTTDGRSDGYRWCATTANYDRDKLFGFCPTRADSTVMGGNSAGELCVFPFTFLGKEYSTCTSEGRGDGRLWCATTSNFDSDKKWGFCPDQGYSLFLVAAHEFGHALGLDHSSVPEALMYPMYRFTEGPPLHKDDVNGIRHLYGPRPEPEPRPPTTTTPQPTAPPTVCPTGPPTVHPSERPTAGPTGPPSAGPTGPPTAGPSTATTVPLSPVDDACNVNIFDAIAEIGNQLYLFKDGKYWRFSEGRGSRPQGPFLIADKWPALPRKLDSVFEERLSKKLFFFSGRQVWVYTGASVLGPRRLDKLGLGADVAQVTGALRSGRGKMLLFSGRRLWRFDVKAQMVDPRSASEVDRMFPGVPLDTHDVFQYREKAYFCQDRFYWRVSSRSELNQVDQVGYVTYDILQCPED

In the case of `COc1cc(N)nc2[nH]c(-c3ccc(F)cc3)c(-c3ccncc3)c12`, the IC50 result (in test [1]; in test [2]; against Endothelin-1 receptor (cho-k1); on Glycine receptor; against Neutrophil elastase; in test [3]) was “Not Active” in each case.

As to `CNS(=O)(=O)Cc1ccc2[nH]cc(CCN(C)C)c2c1`, the half-maximal inhibitory concentration (IC50) entry (in test [1]; in test [2]; against Endothelin-1 receptor (cho-k1); at Glycine receptor; at Neutrophil elastase; in test [3]) was “Not Active” in each case.

On to `CCCc1nn(C)c2c(=O)[nH]c(-c3cc(S(=O)(=O)N4CCN(C)CC4)ccc3OCC)nc12`, for which the IC50 entry (in test [1]; in test [2]; on Endothelin-1 receptor (cho-k1); at Glycine receptor; at Neutrophil elastase; in test [3]) was “Not Active” throughout.

On to `COc1ccc(/C=C/C(=O)Nc2ccccc2C(=O)O)cc1OC`, for which the IC50 entry (in test [1]; in test [2]; against Endothelin-1 receptor (cho-k1); on Glycine receptor; against Neutrophil elastase; in test [3]) was “Not Active” throughout.

Take `CCOC(N)=O`: the IC50 entry (in test [1]; in test [2]; against Endothelin-1 receptor (cho-k1); against Glycine receptor; at Neutrophil elastase; in test [3]) was “Not Active” throughout.

As for `CC(=O)Nc1nnc(S(N)(=O)=O)s1` [ACETAZOLAMIDE], the IC50 result (in test [1]; in test [2]; against Endothelin-1 receptor (cho-k1); at Glycine receptor; on Neutrophil elastase; in test [3]) was “Not Active” each time.

`O=c1[nH]c2ccccc2n1CCCN1CCC(n2c(=O)[nH]c3cc(Cl)ccc32)CC1` [DOMPERIDONE]: the IC50 entry (in test [2]; at Endothelin-1 receptor (cho-k1); on Glycine receptor; against Neutrophil elastase; in test [3]) was “Not Active” throughout.

Take `CC1=C(CC(=O)O)c2cc(F)ccc2/C1=C\c1ccc(S(C)(=O)=O)cc1` [EXISULIND]: the half-inhibitory concentration (IC50) entry was “Not Active” in test [1]; “Not Active” in test [2]; 9.85 µM on Endothelin-1 receptor (read-out: IC50); “Not Active” on Glycine receptor; “Not Active” against Neutrophil elastase; “Not Active” in test [3]. On Endothelin-1 receptor (read-out: Ki), the Ki was determined as 6.06 µM.

For the compound `CC(C)OC(=O)C(C)(C)Oc1ccc(C(=O)c2ccc(Cl)cc2)cc1` [FENOFIBRATE], the IC50 entry (in test [1]; in test [2]; against Endothelin-1 receptor (cho-k1); against Glycine receptor; at Neutrophil elastase; in test [3]) was “Not Active” each time.

As to `OCCN1CCN(CCCN2c3ccccc3Sc3ccc(C(F)(F)F)cc32)CC1` [FLUPHENAZINE], the IC50 result (in test [2]; against Endothelin-1 receptor (cho-k1); against Glycine receptor; on Neutrophil elastase; in test [3]) was “Not Active” throughout.

`CN1C2CCCC1CC(NC(=O)c1nn(C)c3ccccc13)C2` (stereo unspecified) [GRANISETRON]: the concentration for half-maximal inhibition (IC50) entry (in test [1]; in test [2]; against Endothelin-1 receptor (cho-k1); on Glycine receptor; against Neutrophil elastase; in test [3]) was “Not Active” each time.

For `Nc1nc2c(c(=O)[nH]1)N(C=O)C(CNc1ccc(C(=O)N[C@@H](CCC(=O)O)C(=O)O)cc1)CN2` (stereo partly specified) [LEUCOVORIN], the IC50 result (in test [1]; in test [2]; against Endothelin-1 receptor (cho-k1); on Glycine receptor; on Neutrophil elastase; in test [3]) was “Not Active” each time.

Turning to `C[C@@H](O)[C@H]1C(=O)N2C(C(=O)O)=C(S[C@@H]3CN[C@H](C(=O)N(C)C)C3)[C@H](C)[C@H]12` [MEROPENEM], the half-maximal inhibitory concentration (IC50) entry (in test [1]; in test [2]; on Endothelin-1 receptor (cho-k1); at Glycine receptor; against Neutrophil elastase; in test [3]) was “Not Active” throughout.

On to `CC[C@@H](CO)NC(=O)[C@@H]1C=C2c3cccc4c3c(cn4C)C[C@H]2N(C)C1` [METHYSERGIDE], for which the IC50 result (in test [1]; in test [2]; on Endothelin-1 receptor (cho-k1); against Glycine receptor; against Neutrophil elastase; in test [3]) was “Not Active” each time.

With `CCN(CC)CC#CCOC(=O)C(O)(c1ccccc1)C1CCCCC1` (stereo unspecified) [OXYBUTYNIN], the IC50 result (in test [1]; in test [2]; at Endothelin-1 receptor (cho-k1); against Glycine receptor; on Neutrophil elastase; in test [3]) was “Not Active” in each case.

For `O=P(O)(O)C(O)(Cc1cccnc1)P(=O)(O)O` [RISEDRONIC ACID], the IC50 result (in test [1]; in test [2]; against Endothelin-1 receptor (cho-k1); on Glycine receptor; on Neutrophil elastase; in test [3]) was “Not Active” in each case.

On to `CN(CCOc1ccc(CC2SC(=O)NC2=O)cc1)c1ccccn1` (stereo unspecified) [ROSIGLITAZONE], for which the IC50 entry (in test [1]; in test [2]; at Endothelin-1 receptor (cho-k1); at Glycine receptor; against Neutrophil elastase; in test [3]) was “Not Active” throughout.

Consider `C=C(C)[C@H]1Cc2c(ccc3c2O[C@@H]2COc4cc(OC)c(OC)cc4[C@@H]2C3=O)O1` [ROTENONE], for which the half-maximal inhibitory concentration (IC50) result (in test [1]; in test [2]; at Endothelin-1 receptor (cho-k1); at Glycine receptor; against Neutrophil elastase; in test [3]) was “Not Active” throughout.

As to `C#CCN(C)[C@H](C)Cc1ccccc1` [SELEGILINE], the IC50 entry (in test [1]; in test [2]; at Endothelin-1 receptor (cho-k1); against Glycine receptor; against Neutrophil elastase; in test [3]) was “Not Active” throughout.

Turning to `CO[C@H]1C[C@@H]2CC[C@@H](C)[C@@](O)(O2)C(=O)C(=O)N2CCCC[C@H]2C(=O)O[C@H]([C@H](C)C[C@@H]2CC[C@@H](O)[C@H](OC)C2)CC(=O)[C@H](C)/C=C(\C)[C@@H](O)[C@@H](OC)C(=O)[C@H](C)C[C@H](C)/C=C/C=C/C=C/1C` [SIROLIMUS], the half-maximal inhibitory concentration (IC50) result (in test [1]; in test [2]; against Endothelin-1 receptor (cho-k1); against Glycine receptor; against Neutrophil elastase; in test [3]) was “Not Active” each time.

On to `CN[C@@H]1[C@H](O)[C@H](NC)[C@H]2O[C@@]3(O)C(=O)C[C@@H](C)O[C@H]3O[C@@H]2[C@H]1O` [SPECTINOMYCIN], for which the concentration for half-maximal inhibition (IC50) entry (in test [1]; in test [2]; against Endothelin-1 receptor (cho-k1); against Glycine receptor; on Neutrophil elastase; in test [3]) was “Not Active” throughout.

`Nc1ccc(S(=O)(=O)Nc2ncccn2)cc1` [SULFADIAZINE]: the 50% inhibitory concentration (IC50) entry (in test [1]; in test [2]; on Endothelin-1 receptor (cho-k1); at Glycine receptor; against Neutrophil elastase; in test [3]) was “Not Active” throughout.

As to `O=c1n(CCCN2CCN(c3cccc(Cl)c3)CC2)nc2ccccn12` [TRAZODONE], the half-inhibitory concentration (IC50) result (in test [2]; at Endothelin-1 receptor (cho-k1); at Glycine receptor; at Neutrophil elastase; in test [3]) was “Not Active” throughout.

The values above are taken from ChEMBL document CHEMBL1909046, “DrugMatrix in vitro pharmacology data”.
